The test system of the assay is Keratinocytes (H-tert-keratinocytes) subjected to oxidative stress. The assay is described as follows: Oxidative Stress Test (cellular ATP level, ATP Glo luminescence). It counts as cell-based, human. As to conditions: 90 minutes. Here is the method:
This test method provides a suitable way to determine the ability of a test agent to improve cellular ATP production in cells subjected to oxidative stress.
Keratinocytes (e.g., H-tert-keratinocytes from University of Texas Southwestern) are cultured in T150 flasks in EpiLife Medium (e.g., catalogue #MEPICFPRF500 from Thermo Fisher Scientific) supplemented with human keratinocyte growth supplement (e.g., catalogue #S-001-5 from Thermo Fisher Scientific) and 1% penicillin/streptomycin (e.g., catalogue #15140-122 from Thermo Fisher Scientific). When the keratinocytes reach ˜70% confluency, they are plated out into 96 well plates (white, clear bottom with 20,000 cells/well). Incubate the plates for 24 hours before the experimental stress and treatment are applied.
The 96 well plate is divided into three groups of samples (wells) as follows: (i) no stress and no treatment is applied, (ii) stress is applied but no treatment and (iii) stress and treatment are both applied. In combination experiments, stress plus 2 treatments may be applied. For the no stress/no treatment samples (i.e., group (i) above), the culture medium is simply refreshed. For the stressed samples (i.e., group (ii) and (iii) above), culture medium containing 400 μM hydrogen peroxide (HOOH) is used to replace the medium. For the treatment samples (i.e., group (iii) above), immediately after adding the HOOH, pipette the treatment(s) into the wells from a 100× master stock. Return the plates to the CO2 incubator for 90 minutes before measuring ATP.
ATP is measured by removing the media from the samples and replacing it with ATP Glo® reagent (available from Promega, Madison, WI), or equivalent, per manufacturer's instructions. After 10 minutes of exposure at room temperature, the luminescence of each sample can be measured using a Perkin Elmer ENVISION brand plate reader or equivalent. Luminescent counts are directly proportional to ATP level in the cells. Record the luminescent counts for each sample.
Replicates of each treatment group are averaged together, and standard p-value calculations are used (2-sided, equal variance) to calculate significance. In cases where 2 treatments appear to synergistically enhance ATP levels, the results of the combined treatments can be compared to the sum of the individual treatments to determine a synergy factor. The synergy factor is calculated as the ratio of the observed effect from the combined treatments divided by the sum of the results from each individual treatment.
The test agents used in the Oxidative Stress Test are limited to relatively low concentrations due to cell toxicity. That is, applying high concentrations of the test agent directly to “unprotected” keratinocytes may kill some of all of the cells, which would obviously skew the test results. […]

Regarding `CCCCCCCCC(CO)CCCCCC` (stereo not shown) [Fatty Alcohol, hexyldecanol], the “Measured ATP level” value is, setting by setting: (Fatty Alcohol 0.2 ppm, 400 μM hydrogen peroxide) 368.3; (Fatty Alcohol 1 ppm, keratinocytes stressed with 400 μM hydrogen peroxide, luminescent counts) 534.3; (Fatty Alcohol 5 ppm, 400 μM hydrogen peroxide) 708.0; (Fatty Alcohol 50 ppm, 400 μM hydrogen peroxide) 962.3.

The record behind these values is patent publication US12599548B2, “Method of treating oxidative stress in skin and compositions therefor” (The Procter & Gamble Company, priority 2020, dated 2026).
